Test results taken from patent publication US20040059104A1, “Nucleotide mimics and their prodrugs” (priority 2002, published 2004).
Where two headings read alike, the source gives them in different places.

How the values were obtained:
HIV-1RF = assay: Anti-HIV-1 cytoprotection assay in CEM-SS cells; assay type: cell-based; conditions: CEM-SS cells infected with HIV-1RF, MOI approximately 0.01, 6 days, MTS; read-out: CEM-SS IC50 (Anti-HIV Screening)
Method: (§1) ollowing paper: Structure-Activity and Cross-Resistance unodeficiency Virus Type 1-Specific ckheit, Jr. et al., Antimicrobial Agents and s were evaluated in CEM-SS cell cultures V-1RF at an MOI of approximately 0.01. At he soluble tetrazolium-based dye MTS viability and quantify compound toxicity of metabolically active cells to yield a soluble analysis of cell viability and compound
Efficacy Evaluation in CEM-SS Cells Anti-HIV-1 Cytoprotection Assay
Cell Preparation—CEM-SS cells were passaged in T-75 flasks prior to use in the antiviral assay. On the day preceding the assay, the cells were split 1:2 to assure they were in an exponential growth phase at the time of infection. Total cell and viability quantification was performed using a hemacytometer and trypan blue exclusion. Cell viability was greater than 95% for the cells to be utilized in the assay. The cells were resuspended at 5×10^4 cells/ml in tissue culture medium and added to the drug-containing microtiter plates in a volume of 50 μl.
Virus Preparation—The virus used for these tests was the lymphocytropic virus strain HIV-1RF. This virus was obtained from the NIH AIDS Research and Reference Reagent Program and was grown in CEM-SS cells for the production of stock virus pools. For each assay, a pre-titered aliquot of virus was removed from the freezer (−80° C.) and allowed to thaw slowly to room temperature in a biological safety cabinet. The virus was resuspended and diluted into tissue culture medium such that the amount of virus added to each well in a volume of 50 μl was the amount determined to give between 85 to 95% cell killing at 6 days post-infection.
(§2) At assay termination, the assay plates were stained with the soluble tetrazolium-based dye MTS (CellTiter Reagent Promega) to determine cell viability and quantify compound toxicity. MTS is metabolized by the mitochondrial enzymes of metabolically active cells to yield a soluble formazan product, allowing the rapid quantitative analysis of cell viability and compound cytotoxicity. […] At termination of the assay, 20 μL of MTS reagent was added per well. The microtiter plates were then incubated 4-6 hrs at 37° C. for the HIV cytoprotection assay; the incubation intervals were chosen based on empirically determined times for optimal dye reduction. Adhesive plate sealers were used in place of the lids, the sealed plate was inverted several times to mix the soluble formazan product and the plate was read spectrophotometrically at 490 nm with a Molecular Devices Vmax plate reader.

CEM-SS cells = assay: Compound toxicity in CEM-SS cells (MTS staining); assay type: cell-based; conditions: read-out: CEM-SS TC50
Method: as §1, §2

[1] = target: T1, HIV Reverse Transcriptase (Type B, 66 kDa subunit) (Human immunodeficiency virus type 1 group M subtype B, UniProt P04585); assay: HIV Reverse Transcriptase inhibition assays (RNA-directed DNA polymerization, PicoGreen fluorescence); assay type: biochemical; conditions: Table 1; template (homopolymer or heteropolymer RNA) not stated; read-out: Ki, Inhibition of HIV Reverse Transcriptase by Nucleotide Mimics
T1 construct: purified HIV Reverse Transcriptase (Type B, 66 kDa subunit)
Method: The assays employed to measure inhibition of HIV Reverse Transcriptase (HIV RT) catalyzed/RNA-directed DNA polymerization are described below. The effectiveness of the compounds of the present invention as inhibitors of HIV RT-catalyzed DNA polymerization was measured in the following assays.
This assay was used to measure the ability of the nucleotide mimics of the present invention to inhibit the enzymatic synthesis of complementary strand DNA from a DNA-primed template of homopolymeric RNA. This assay is a modification of a published procedure (Seville, et al., “Fluorometric Assay for DNA Polymerases and Reverse Transcriptase”, BioTechniques 1996, 21, 664-72).
The compounds were tested at various concentrations up to 500 μM final concentration. DNA polymerase activity was measured in a reaction buffer containing primed-RNA template and dTTP diluted to appropriate concentrations in assay buffer. Nucleotide mimics of the present invention were diluted in buffer and pipetted into the wells of a 96-well plate. The reaction was initiated by addition of enzyme and allowed to proceed at 37° C. for 10 minutes. The reaction was quenched by addition of 5 μL 0.2 M EDTA, pH 8.0.
200 μL of diluted PicoGreen dsDNA Quantitation Reagent (Molecular Probes, Inc, Eugene, Oreg.) was added to each well of a 96-well plate and incubated at room temperature for 5 minutes. Plate wells were read on a microplate fluorometer (Molecular Devices Corp., Sunnyvale, Calif.). The wells were excited at 480 nm and the fluorescence emission intensity (RFU) was measured at 520 nm. The percentage of inhibition was calculated according to the following equation:
% Inhibition=[1−(RFU in test reaction−RFU in blank)/(RFU in control reaction−RFU in blank)]×100.
Each inhibitor was titrated over an appropriate range of concentrations, and inhibition constants were determined using the following equations:
v=Vm[S]/(Km(1+[I]/Ki)+[S])
Certain compounds of the present invention were also tested to determine their ability to inhibit HIV RT-catalyzed DNA polymerization on a heteropolymeric primed-RNA template in the presence of all four natural deoxynucleotide triphosphate (dNTP) substrates. This assay is a modification of a published procedure (Parker et al., “Mechanism of Inhibition of Human Immunodeficiency Virus Type 1 Reverse Transcriptase and Human DNA Polymerases α, β, and γ by the 5′-Triphosphates of Carbovir,3′-Azido-3′-deoxythymidine,2′-3′-Dideoxyguanosine, and 3′-Deoxythymidine”, J. Biol. Chem. 1991, 266 (3), 1754-62).
HIV RT DNA polymerase activity was measured in a reaction buffer containing primed-ribosomal RNA template and dNTPs diluted to appropriate concentrations in assay buffer and pipetted into 1.5 mL microcentrifuge tubes. Nucleotide mimics of the present invention were diluted in buffer and tested at various concentrations up to 5 μM final concentration. The reaction was initiated by addition of enzyme and allowed to proceed at 42° C. for 60 to 90 minutes. The reaction was quenched by addition of 12 μL 0.2 M EDTA, pH 8.0.
50 μL each of reaction was transferred to the well of a 96-well plate (in duplicate). 200 μL of diluted PicoGreen dsDNA Quantitation Reagent was added to each well of a 96-well plate and incubated at room temperature for 5 minutes. Plate wells were read on a microplate fluorometer. The wells were excited at 480 nm and the fluorescence emission intensity (RFU) was measured at 520 nm. The percentage of inhibition and inhibition constants […] were determined for representative compounds as described above.

Escherichia coli = assay: Antimicrobial assay, minimal inhibitory concentration; assay type: cell-based; conditions: for MIC: Escherichia coli, read-out: E. coli MIC
Method: (§3) To examine the antimicrobial potential of the nucleotide mimics of the present invention an assay was employed that allowed the screening of a large number of compounds simultaneously. The type of bacteria chosen to screen the compounds are organisms associated with human disease and represent major groups of bacteria based on their structure and metabolism. Bacterial cultures of Escherichia coli and Staphylococcus aureus were incubated overnight at 37° C. in a shaker incubator. A lawn of each overnight bacterial culture was made by plating […] of bacteria on agar plates containing Nutrient Broth. Immediately after plating, sterile blank paper discs were put on top of the lawn and a compound was applied to each blank paper disc. Plates were then incubated overnight and examined for the inhibition of bacterial growth the following day. […] The plates were incubated overnight at 37° C. and then examined spectrophotometrically at 600 nm to determine the minimum concentration of each compound that inhibited replication of bacteria as determined by no increase in absorbance at 600 nm.

in vitro [2] = assay: in vitro
Method: Typically the total volume used for the experiment was 500 μl. The final concentrations of the reaction components were as follows:
The reacton mixtures were made up and incubated at 37° C. At appropriate times aliquots of 25 μl were removed and added to 65 μl ice-cold methanol. These solutions were our at −20° C. and typically overnight. After incubation samples were inutes at high speed in a microcentrifuge. The supernatant was nd the extract was dried under vacuum in a LabConco Centrivap Concentrator. The dried extracts were resuspended in dH2O and filtered to remove particulate before analysis on reverse phase HPLC.
The reverse phase HPLC columns used for the analysis were either a Phenomenex C18 Aqua column (2×100 mm) or the Phenomenex C18 Aqua column (3×150 mm) used with the appropriate guard column. The HPLC was run at 0.2 ml/min (for the 2×100 mm column) or at 0.5 ml/min (for the 3×150 mm column) with the following buffer system: 5 mM tetrabutylammonium acetate, 50 mM ammonium phosphate, and an acetonitrile gradient running from 5% up to as high as 60%. The amount of remaining parent compound at each time point was used to determine the half-life of the compound. […] Unmodified nucleoside triphosphates were used as positive controls.

in vitro [3] = assay: in vitro; remark: listed apart in the source
Method: The stability of compounds in cell extracts was examined as follows:
Cell lysis buffer was added to cell pellets and the cells frozen and thawed 3× using dry ice. The lysis buffer (LB) was composed of the following: 50 mM Tris-HCl, pH 7.4 (100 μl/ml 10× stock), 20% glycerol (200 μl/ml), and 0.5% Triton X-100 (5 μl/ml). 100 μl of LB was added to each microfuge tube containing 10^7 frozen CEM cells. After the cells were lysed the extracts were centrifuged at high speed in a microcentrifuge for 5 minutes and the clarified cell extract transferred to a new tube. The cell stability reaction mixtures contained concentrations of buffer, magnesium, nucleotide, and cell extract as shown below:
The reaction mixtures were incubated at 37° C. At each time point, including at time zero, 12.5 μl aliquots were added to 40 μl ice-cold methanol. […] The samples were incubated in methanol for at least 60 minutes and typically overnight at −20° C. prior to further processing. The cell extracts were centrifuged at high speed in refrigerated microcentrifuge for 20 minutes and the supernatant transferred to a new tube. The extract was then dried under vacuum in a LabConco Centrivap Concentrator. The samples were then resuspended in 40 or 50 μl dH2O, filtered to remove any particulate, and analyzed by reverse phase HPLC.
The reverse phase HPLC columns used for the analysis were either a Phenomenex C18 Aqua column (2×100 mm) or the Phenomenex C18 Aqua column (3×150 mm) used with the appropriate guard column. The HPLC flow rate was either 0.2 ml/min (for the 2×100 mm column) or 0.5 ml/min (for the 3×150 mm column) with the following buffer system: 5 mM tetrabutylammonium acetate, 50 mM ammonium phosphate, and an acetonitrile gradient running from 5% up to as high as 60%. The amount of remaining parent compound at each time point was used to determine the half-life of the compound. […] Unmodified nucleoside triphosphates were used as positive controls.

Staphylococcus aureus = assay: Antimicrobial assay, minimal inhibitory concentration; assay type: cell-based
Method: as §3

[4] = overnight at 37° C., tested 0-200 μg/ml, NA = Not active
[5] = value in brackets beside the μg/ml value

## 3′-Azido-3′-deoxythymidine 5′-α-P-borano-β,γ-diluoromethylene-γ-O-(4-nitrophenyl)triphosphate [Compound 43]
HIV-1RF
  IC50: 6.43 µM
CEM-SS cells
  CC50: 125 µM

## BP(=O)(OC[C@@H]1O[C@H](n2cc(C)c(=O)[nH]c2=O)C[C@H]1N=[N+]=[N-])OP(=O)(O)C(Cl)(Cl)P(=O)(O)O (single isomer, unassigned; isomer 1) [Compound 26-isomer 1, 3′-Azido-3′-deoxythymidine 5′-α-P-borano-β,γ-(dichloromethylene)triphosphate]
[1]
  Ki: 0.093 µM
Escherichia coli; [4]
  E. coli MIC: 12 µg/mL
Escherichia coli; [5]
  E. coli MIC: (21) uM
In vitro [2]; bovine, serum
  Half-Life, Serum Half-Lives of NTPs and AZT Triphosphate Mimics: 45 h
In vitro [3]; human
  Half-Life, Cell extract Half-Lives of AZT Triphosphate Mimics: >48 h

## [BH3-][P+](O)(OCC1OC(n2cc(C)c(=O)[nH]c2=O)CC1N=[N+]=[N-])OP(=O)(O)C(Cl)(Cl)P(=O)(O)O (single isomer, unassigned) [Compound 26-isomer 2, 3′-Azido-3′-deoxythymidine 5′-α-P-borano-β,γ-(dichloromethylene)triphosphate]
[1]
  Ki: 0.074 µM
Escherichia coli; [4]
  MIC: 10 µg/mL
Escherichia coli; [5]
  MIC: 17.5 µM
In vitro [2]; bovine, serum, Half-Life, Serum Half-Lives of NTPs and AZT Triphosphate Mimics
  half-life at 500 μM: 48 h
In vitro [3]; human, pH 7.4
  half-life at 500 μM: > 48 h

## CC(C)(C)C(=O)SCCOP(=O)(O)CP(=O)(OCCSC(=O)C(C)(C)C)OC[C@H]1O[C@@H](n2ccc(N)nc2=O)C(F)(F)[C@@H]1O (stereo partly drawn) [Compound 76, 2′-deoxy-2′,2′-difluorocytidine 5′-di-α, β-O—(S-pivaloyl-2-thioethyl)-α,β-methylenediphosphonate]
Staphylococcus aureus; [4]
  S. aureus MIC: 25 µg/mL
Staphylococcus aureus; [5]
  S. aureus MIC: (35) μM
In vitro [2]; Table 8, 50% fetal calf serum, 37° C., 500 μM, time points through 48 hours
  Half-Life, Serum Half-Lives of Gemcitibine Diphosphate Mimics and Their Prodrugs: >48 h
In vitro [3]; Table 11, 50% CEM cell extract, 37° C., 500 μM, time points through 48 hours
  Half-Life, Cell Extract Half-Lives of Gemcitibine 5'-Methylendiphosphonate and its Prodrugs: 37 h

## 2′-Deoxy-2′,2′-difluorocytidine 5′-β-O—(S-pivaloyl-2-thioethyl) -α,β-methylene-diphosphonate [Compound 75]
Staphylococcus aureus; [4]
  S. aureus MIC: 15 µg/mL
Staphylococcus aureus; [5]
  S. aureus MIC: (26) μM

## 3′-Azido-3′-deoxythymidine 5′-α-P-borano-β,γ-difluoromethylene-γ-O-methyltriphosphate [Compound 40]
[1]
  Ki: 0.069 µM
Escherichia coli; [4]
  E. coli MIC: 25 to 50 µg/mL
Escherichia coli; [5]
  E. coli MIC: (40-80) uM
HIV-1RF
  IC50: 4 µM
CEM-SS cells
  CC50: > 200 µM
